Measurements taken from ChEMBL document CHEMBL6177993, “De Novo 3-(Phenylcarbamoyl) Benzoate Analogues: Efficacy against Multidrug-Resistant S. aureus and Elucidation of the Biodistribution Profile” (J Med Chem, 2025).
Converted amounts (≈) assume the structure as drawn. The source made the active and inactive calls. No cut-off for these calls is given here.

Columns and labels:
Bacillus subtilis = assay: Antibacterial activity against Bacillus subtilis IITKSM1 assessed as reduction in bacterial growth measured after 18 to 24 hrs by broth microdilution method; format: functional; details: time 18-24 hrs
Staphylococcus aureus [1] = assay: Antibacterial activity against vacomycin-resistant Staphylococcus aureus VRS 1 assessed as reduction in bacterial growth measured after 18 to 24 hrs by broth microdilution method; format: functional; details: time 18-24 hrs
Staphylococcus aureus [2] = assay: Antibacterial activity against methicillin-resistant Staphylococcus aureus NRS 100 assessed as reduction in bacterial growth measured after 18 to 24 hrs by broth microdilution method; format: functional; details: time 18-24 hrs
Staphylococcus aureus [3] = assay: Inhibition of biofilm in Staphylococcus aureus ATCC 29213 at 1 times MIC measured after 12 hrs by crystal violet staining based analysis relative to control; format: functional
Staphylococcus aureus [4] = assay: Inhibition of biofilm in Staphylococcus aureus ATCC 29213 at 0.5 times MIC measured after 12 hrs by crystal violet staining based analysis relative to control; format: functional
Staphylococcus aureus [5] = assay: Antibacterial activity against vacomycin-resistant Staphylococcus aureus VRS 12 assessed as reduction in bacterial growth measured after 18 to 24 hrs by broth microdilution method; format: functional; details: time 18-24 hrs
Enterococcus faecalis = assay: Antibacterial activity against Enterococcus faecalis ATCC 35550 assessed as reduction in bacterial growth measured after 18 to 24 hrs by broth microdilution method; format: functional; details: time 18-24 hrs
Acinetobacter baumannii = assay: Antibacterial activity against Acinetobacter baumannii BAA 1605 assessed as reduction in bacterial growth measured after 18 to 24 hrs by broth microdilution method; format: functional; details: time 18-24 hrs
Staphylococcus aureus [6] = assay: Antibacterial activity against methicillin-resistant Staphylococcus aureus NRS 192 assessed as reduction in bacterial growth measured after 18 to 24 hrs by broth microdilution method; format: functional; details: time 18-24 hrs
Staphylococcus aureus [7] = assay: Antibacterial activity against methicillin-resistant Staphylococcus aureus NRS 194 assessed as reduction in bacterial growth measured after 18 to 24 hrs by broth microdilution method; format: functional; details: time 18-24 hrs
Staphylococcus aureus [8] = assay: Inhibition of biofilm in Staphylococcus aureus ATCC 29213 at 2 times MIC measured after 12 hrs by crystal violet staining based analysis relative to control; format: functional
Staphylococcus aureus [9] = assay: Antibacterial activity against methicillin-resistant Staphylococcus aureus NRS 193 assessed as reduction in bacterial growth measured after 18 to 24 hrs by broth microdilution method; format: functional; details: time 18-24 hrs
Staphylococcus aureus [10] = assay: Antibacterial activity against methicillin-sensitive Staphylococcus aureus ATCC 29213 assessed as reduction in bacterial growth measured after 18 to 24 hrs by broth microdilution method; format: functional; details: time 18-24 hrs
Staphylococcus aureus [11] = assay: Antibacterial activity against Staphylococcus aureus ATCC 29213 assessed as reduction in bacterial growth measured after 18 to 24 hrs by broth microdilution method; format: functional; details: time 18-24 hrs
Staphylococcus aureus [12] = assay: Antibacterial activity against methicillin-resistant Staphylococcus aureus NRS 191 assessed as reduction in bacterial growth measured after 18 to 24 hrs by broth microdilution method; format: functional; details: time 18-24 hrs
Klebsiella pneumoniae = assay: Antibacterial activity against Klebsiella pneumoniae BAA 1705 assessed as reduction in bacterial growth measured after 18 to 24 hrs by broth microdilution method; format: functional; details: time 18-24 hrs
Staphylococcus aureus [13] = assay: Antibacterial activity against methicillin-resistant Staphylococcus aureus NRS 198 assessed as reduction in bacterial growth measured after 18 to 24 hrs by broth microdilution method; format: functional; details: time 18-24 hrs
Pseudomonas aeruginosa = assay: Antibacterial activity against Pseudomonas aeruginosa ATCC 27853 assessed as reduction in bacterial growth measured after 18 to 24 hrs by broth microdilution method; format: functional; details: time 18-24 hrs
Escherichia coli = assay: Antibacterial activity against Escherichia coli ATCC 25922 assessed as reduction in bacterial growth measured after 18 to 24 hrs by broth microdilution method; format: functional; details: time 18-24 hrs
Staphylococcus aureus [14] = assay: Inhibition of biofilm in Staphylococcus aureus ATCC 29213 at 2 ug/ml measured after 12 hrs by crystal violet staining based analysis; format: functional, organism-based; details: dose 2.0 µg/ml
Staphylococcus aureus [15] = assay: Antibacterial activity against methicillin-resistant Staphylococcus aureus NRS 119 assessed as reduction in bacterial growth measured after 18 to 24 hrs by broth microdilution method; format: functional; details: time 18-24 hrs
Staphylococcus aureus [16] = assay: Antibacterial activity against methicillin-resistant Staphylococcus aureus NRS 129 assessed as reduction in bacterial growth measured after 18 to 24 hrs by broth microdilution method; format: functional; details: time 18-24 hrs
Staphylococcus aureus [17] = assay: Antibacterial activity against methicillin-resistant Staphylococcus aureus NRS 186 assessed as reduction in bacterial growth measured after 18 to 24 hrs by broth microdilution method; format: functional; details: time 18-24 hrs
Staphylococcus aureus [18] = assay: Antibacterial activity against vacomycin-resistant Staphylococcus aureus VRS 4 assessed as reduction in bacterial growth measured after 18 to 24 hrs by broth microdilution method; format: functional; details: time 18-24 hrs
Staphylococcus aureus [19] = assay: Antibacterial activity against Staphylococcus aureus assessed as reduction in bacterial growth; format: functional
Staphylococcus aureus [20] = assay: Induction of morphological changes in Staphylococcus aureus ATCC 29213 assessed as cell shrinkage at 10 times MIC measured after 4 hrs by atomic force microscopy based analysis (reference value: 60.170 nanometer); format: functional

SMILES | MIC (Bacillus subtilis) [µg/mL] | MIC (Enterococcus faecalis) [µg/mL] | MIC (Acinetobacter baumannii) [µg/mL] | MIC (Staphylococcus aureus [11]) [µg/mL] | MIC (Klebsiella pneumoniae) [µg/mL] | MIC (Pseudomonas aeruginosa) [µg/mL] | MIC (Escherichia coli) [µg/mL] | MIC (Staphylococcus aureus [1]) [µg/mL] | MIC (Staphylococcus aureus [2]) [µg/mL] | MIC (Staphylococcus aureus [5]) [µg/mL] | MIC (Staphylococcus aureus [6]) [µg/mL] | MIC (Staphylococcus aureus [7]) [µg/mL] | MIC (Staphylococcus aureus [9]) [µg/mL] | MIC (Staphylococcus aureus [10]) [µg/mL] | MIC (Staphylococcus aureus [12]) [µg/mL] | MIC (Staphylococcus aureus [13]) [µg/mL] | MIC (Staphylococcus aureus [15]) [µg/mL] | MIC (Staphylococcus aureus [16]) [µg/mL] | MIC (Staphylococcus aureus [17]) [µg/mL] | MIC (Staphylococcus aureus [18]) [µg/mL] | also measured
O=C(O)c1cccc(C(=O)Nc2c(C(c3ccccc3)c3ccccc3)cc(Cl)cc2C(c2ccccc2)c2ccccc2)c1 | 2 (≈ 3.29 µM) | 1 (≈ 1.64 µM) | > 64 | 2 (≈ 3.29 µM) | > 64 | > 64 | > 64 | 4 (≈ 6.58 µM) | 4 (≈ 6.58 µM) | 4 (≈ 6.58 µM) | 4 (≈ 6.58 µM) | 8 (≈ 13.2 µM) | 8 (≈ 13.2 µM) | 4 (≈ 6.58 µM) | 4 (≈ 6.58 µM) | 8 (≈ 13.2 µM) | 4 (≈ 6.58 µM) | 4 (≈ 6.58 µM) | 4 (≈ 6.58 µM) | 4 (≈ 6.58 µM) | inhibition (INH) (Staphylococcus aureus [3]): 96%; inhibition (INH) (Staphylococcus aureus [4]): >50%; inhibition (INH) (Staphylococcus aureus [8]): 95%; inhibition (Staphylococcus aureus [14]): Active
O=C(Nc1ccccc1)c1cc(Cl)ccc1O | – | – | – | – | – | – | – | – | – | – | – | – | – | – | – | – | – | – | – | – | MIC (Staphylococcus aureus [19]): ≥ 2.47 µg/mL
CN(C)c1ccc(O)c2c1C[C@H]1C[C@H]3[C@H](N(C)C)C(O)=C(C(N)=O)C(=O)[C@@]3(O)C(O)=C1C2=O [MINOCYCLINE] | – | – | – | – | – | – | – | > 64 | > 64 | 16 (≈ 35 µM) | 32 (≈ 69.9 µM) | 2 (≈ 4.37 µM) | > 64 | 0.25 (≈ 0.546 µM) | 64 (≈ 140 µM) | 64 (≈ 140 µM) | > 64 | 8 (≈ 17.5 µM) | 8 (≈ 17.5 µM) | > 64 | –
CC1(C)S[C@@H]2[C@H](NC(=O)[C@H](N)c3ccccc3)C(=O)N2[C@H]1C(=O)O [AMPICILLIN] | – | – | – | – | – | – | – | – | – | – | – | – | – | – | – | – | – | – | – | – | Activity (Staphylococcus aureus [20]): 36.075 nm
CC(C)(C)c1cc(C(c2ccc(F)cc2)c2ccc(F)cc2)c(NC(=O)c2cccc(C(=O)O)c2)c(C(c2ccc(F)cc2)c2ccc(F)cc2)c1 | 1 (≈ 1.42 µM) | 1 (≈ 1.42 µM) | > 64 | 2 (≈ 2.85 µM) | > 64 | > 64 | > 64 | 2 (≈ 2.85 µM) | 2 (≈ 2.85 µM) | 2 (≈ 2.85 µM) | 2 (≈ 2.85 µM) | 2 (≈ 2.85 µM) | 2 (≈ 2.85 µM) | 2 (≈ 2.85 µM) | 2 (≈ 2.85 µM) | 2 (≈ 2.85 µM) | 2 (≈ 2.85 µM) | 2 (≈ 2.85 µM) | 2 (≈ 2.85 µM) | 2 (≈ 2.85 µM) | inhibition (INH) (Staphylococcus aureus [3]): 95%; inhibition (INH) (Staphylococcus aureus [4]): >50%; inhibition (INH) (Staphylococcus aureus [8]): 95%; inhibition (Staphylococcus aureus [14]): Active
C#CCOc1ccccc1-c1ccc(-c2ccc(-c3ccccc3OCc3cn(CC(=O)N[C@@H](CCCNC(=N)N)C(=O)N[C@@H](CCCNC(=N)N)C(=O)N[C@@H](CCCNC(=N)N)C(N)=O)nn3)cc2)cc1 | – | – | – | – | – | – | – | – | – | – | – | – | – | – | – | – | – | – | – | – | MIC (Staphylococcus aureus [19]): 3.83 µg/mL (≈ 3.9 µM)
C[C@H]1COc2c(N3CCN(C)CC3)c(F)cc3c(=O)c(C(=O)O)cn1c23 [LEVOFLOXACIN ANHYDROUS] | – | – | – | – | – | – | – | 32 (≈ 88.6 µM) | 0.25 (≈ 0.692 µM) | 32 (≈ 88.6 µM) | 8 (≈ 22.1 µM) | 0.125 (≈ 0.346 µM) | 32 (≈ 88.6 µM) | 0.25 (≈ 0.692 µM) | 16 (≈ 44.3 µM) | 32 (≈ 88.6 µM) | 16 (≈ 44.3 µM) | 0.25 (≈ 0.692 µM) | 4 (≈ 11.1 µM) | > 64 | –

Continued, in another order:

MIC (Bacillus subtilis) [µg/mL] | MIC (Enterococcus faecalis) [µg/mL] | MIC (Acinetobacter baumannii) [µg/mL] | MIC (Staphylococcus aureus [11]) [µg/mL] | MIC (Klebsiella pneumoniae) [µg/mL] | MIC (Pseudomonas aeruginosa) [µg/mL] | MIC (Escherichia coli) [µg/mL] | SMILES | MIC (Staphylococcus aureus [1]) [µg/mL] | MIC (Staphylococcus aureus [2]) [µg/mL] | MIC (Staphylococcus aureus [5]) [µg/mL] | MIC (Staphylococcus aureus [6]) [µg/mL] | MIC (Staphylococcus aureus [7]) [µg/mL] | MIC (Staphylococcus aureus [9]) [µg/mL] | MIC (Staphylococcus aureus [10]) [µg/mL] | MIC (Staphylococcus aureus [12]) [µg/mL] | MIC (Staphylococcus aureus [13]) [µg/mL] | MIC (Staphylococcus aureus [15]) [µg/mL] | MIC (Staphylococcus aureus [16]) [µg/mL] | MIC (Staphylococcus aureus [17]) [µg/mL] | MIC (Staphylococcus aureus [18]) [µg/mL] | also measured
1 (≈ 1.56 µM) | 16 (≈ 24.9 µM) | > 64 | > 64 | > 64 | > 64 | > 64 | O=C(O)c1cccc(C(=O)Nc2c(C(c3ccccc3)c3ccccc3)cc(C(F)(F)F)cc2C(c2ccccc2)c2ccccc2)c1 | – | – | – | – | – | – | – | – | – | – | – | – | – | –
2 (≈ 3.06 µM) | 2 (≈ 3.06 µM) | > 64 | 4 (≈ 6.13 µM) | > 64 | > 64 | > 64 | O=C(O)c1cccc(C(=O)Nc2c(C(c3ccccc3)c3ccccc3)cc(Br)cc2C(c2ccccc2)c2ccccc2)c1 | – | – | – | – | – | – | – | – | – | – | – | – | – | –
1 (≈ 1.69 µM) | 2 (≈ 3.38 µM) | > 64 | 4 (≈ 6.76 µM) | > 64 | > 64 | > 64 | O=C(O)c1cccc(C(=O)Nc2c(C(c3ccccc3)c3ccccc3)cc(F)cc2C(c2ccccc2)c2ccccc2)c1 | – | – | – | – | – | – | – | – | – | – | – | – | – | –
64 (≈ 86.5 µM) | 8 (≈ 10.8 µM) | > 64 | > 64 | > 64 | > 64 | > 64 | O=C(O)c1cccc(C(=O)Nc2c(C(c3ccccc3)c3ccccc3)cc(C(c3ccccc3)c3ccccc3)cc2C(c2ccccc2)c2ccccc2)c1 | – | – | – | – | – | – | – | – | – | – | – | – | – | –
32 (≈ 53 µM) | 64 (≈ 106 µM) | > 64 | 8 (≈ 13.3 µM) | > 64 | > 64 | > 64 | COc1cc(C(c2ccccc2)c2ccccc2)c(NC(=O)c2cccc(C(=O)O)c2)c(C(c2ccccc2)c2ccccc2)c1 | – | – | – | – | – | – | – | – | – | – | – | – | – | –
